# From publication PMC7211203 (European Journal of Drug Metabolism and Pharmacokinetics, 2020)
# Marks after values point to notes of the source that are not given here.
# Legend:
# CYP3A4 [1] = settings: ref Eisai, data on file; cited from earlier work
# [2] = cited from earlier work
# [3] = cited from earlier work; remark: listed apart in the source
# [4] = phase 1 study; cited from earlier work
# [5] = Safety: adverse events in patients with advanced solid tumors; assay type: in vivo, human
# CYP3A4 [6] = biological target: CYP3A4 (Homo sapiens, UniProt P08684); settings: cited from earlier work
# CYP3A4 (Homo sapiens, UniProt P08684), sequence (P08684 whole entry): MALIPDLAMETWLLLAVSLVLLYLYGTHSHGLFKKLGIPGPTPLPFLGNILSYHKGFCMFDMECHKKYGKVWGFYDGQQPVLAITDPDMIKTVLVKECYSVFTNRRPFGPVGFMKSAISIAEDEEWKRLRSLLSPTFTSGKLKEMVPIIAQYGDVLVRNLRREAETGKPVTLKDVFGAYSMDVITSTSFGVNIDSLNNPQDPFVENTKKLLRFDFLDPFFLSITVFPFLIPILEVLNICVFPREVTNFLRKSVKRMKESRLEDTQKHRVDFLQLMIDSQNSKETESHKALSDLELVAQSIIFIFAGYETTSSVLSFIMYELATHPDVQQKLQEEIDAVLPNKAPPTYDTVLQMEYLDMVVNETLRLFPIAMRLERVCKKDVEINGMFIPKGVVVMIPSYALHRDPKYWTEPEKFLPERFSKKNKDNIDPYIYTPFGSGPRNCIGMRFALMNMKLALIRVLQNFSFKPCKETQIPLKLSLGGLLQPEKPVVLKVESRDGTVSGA
# [7] = safety analysis set n = 30, treatment phase
smiles,measurement,setting,value
COc1cc2nccc(Oc3ccc(NC(=O)NC4CC4)c(Cl)c3)c2cc1C(N)=O [lenvatinib],Action on CYP3A4,CYP3A4 [1],weak inducer and time-dependent inhibitor of CYP3A4
same,Interaction with ketoconazole (inhibitor of CYP3A4),[2],not clinically significant
same,tmax,[3]; after dosing,1 to 4 h
same,half-life,[3],28 h
same,Pharmacokinetic drug–drug interactions in combination with everolimus,[4],no significant pharmacokinetic drug–drug interactions
same,Grade of treatment-related SAEs,[5]; all treatment-related SAEs,≤ 3 grade
same,New AEs in the extension phase,"[5]; extension phase (Eisai, data on file)",No new AEs
same,Patients who died during the treatment phase,"[5]; grade 5 TEAE (intestinal obstruction), related to underlying colon cancer",One
same,Tolerability,"[5]; lenvatinib 24 mg once daily, patients with advanced solid tumors",generally well tolerated
same,Abdominal pain upper: SAEs,[5]; safety analysis set n = 30,1 (3.3) n (%)
same,Abdominal pain: SAEs,[5]; safety analysis set n = 30,2 (6.7) n (%)
same,Abdominal pain: TEAEs,[5]; safety analysis set n = 30,3 (10.0) n (%)
same,Asthenia: SAEs,[5]; safety analysis set n = 30,1 (3.3) n (%)
same,Asthenia: TEAEs,[5]; safety analysis set n = 30,3 (10.0) n (%)
same,Asthenia: treatment-related AEs,[5]; safety analysis set n = 30,2 (6.7) n (%)
same,Bradycardia: SAEs,[5]; safety analysis set n = 30,1 (3.3) n (%)
same,Cardiac disorders: SAEs,[5]; safety analysis set n = 30,2 (6.7) n (%)
same,Cerebral hemorrhage: SAEs,[5]; safety analysis set n = 30,1 (3.3) n (%)
same,Cough: TEAEs,[5]; safety analysis set n = 30,2 (6.7) n (%)
same,Diarrhea: TEAEs,[5]; safety analysis set n = 30,7 (23.3) n (%)
same,Diarrhea: treatment-related AEs,[5]; safety analysis set n = 30,3 (10.0) n (%)
same,Dysphonia: TEAEs,[5]; safety analysis set n = 30,2 (6.7) n (%)
same,Dyspnea: SAEs,[5]; safety analysis set n = 30,1 (3.3) n (%)
same,Dyspnea: TEAEs,[5]; safety analysis set n = 30,2 (6.7) n (%)
same,Fatigue: TEAEs,[5]; safety analysis set n = 30,8 (26.7) n (%)
same,Fatigue: treatment-related AEs,[5]; safety analysis set n = 30,5 (16.7) n (%)
same,Gastrointestinal disorders: SAEs,[5]; safety analysis set n = 30,4 (13.3) n (%)
same,Gastrointestinal disorders: TEAEs,[5]; safety analysis set n = 30,12 (40.0) n (%)
same,Gastrointestinal disorders: treatment-related AEs,[5]; safety analysis set n = 30,6 (20.0) n (%)
same,General disorders: SAEs,[5]; safety analysis set n = 30,1 (3.3) n (%)
same,General disorders: TEAEs,[5]; safety analysis set n = 30,11 (36.7) n (%)
same,General disorders: treatment-related AEs,[5]; safety analysis set n = 30,7 (23.3) n (%)
same,Headache: TEAEs,[5]; safety analysis set n = 30,3 (10.0) n (%)
same,Headache: treatment-related AEs,[5]; safety analysis set n = 30,2 (6.7) n (%)
same,Hypertension: SAEs,[5]; safety analysis set n = 30,3 (10.0) n (%)
same,Hypertension: TEAEs,[5]; safety analysis set n = 30,7 (23.3) n (%)
same,Hypertension: treatment-related AEs,[5]; safety analysis set n = 30,6 (20.0) n (%)
same,Nausea: TEAEs,[5]; safety analysis set n = 30,4 (13.3) n (%)
same,Nausea: treatment-related AEs,[5]; safety analysis set n = 30,2 (6.7) n (%)
same,Nervous system disorders: SAEs,[5]; safety analysis set n = 30,1 (3.3) n (%)
same,Nervous system disorders: TEAEs,[5]; safety analysis set n = 30,5 (16.7) n (%)
same,Nervous system disorders: treatment-related AEs,[5]; safety analysis set n = 30,2 (6.7) n (%)
same,Patient deaths from TEAEs: SAEs,[5]; safety analysis set n = 30,1 (3.33) n (%)
same,Pyrexia: SAEs,[5]; safety analysis set n = 30,1 (3.3) n (%)
same,Rectal hemorrhage: SAEs,[5]; safety analysis set n = 30,1 (3.3) n (%)
same,"Respiratory, thoracic, and mediastinal disorders: SAEs",[5]; safety analysis set n = 30,1 (3.3) n (%)
same,"Respiratory, thoracic, and mediastinal disorders: TEAEs",[5]; safety analysis set n = 30,8 (26.7) n (%)
same,Stress cardiomyopathy: SAEs,[5]; safety analysis set n = 30,1 (3.3) n (%)
same,Vascular disorders: SAEs,[5]; safety analysis set n = 30,3 (10.0) n (%)
same,Vascular disorders: TEAEs,[5]; safety analysis set n = 30,7 (23.3) n (%)
same,Vascular disorders: treatment-related AEs,[5]; safety analysis set n = 30,6 (20.0) n (%)
same,Vomiting: TEAEs,[5]; safety analysis set n = 30,2 (6.7) n (%)
same,Vomiting: treatment-related AEs,[5]; safety analysis set n = 30,2 (6.7) n (%)
same,Patients with any TEAEs: SAEs,[5]; [7],10 (33.3) n (%)
same,Patients with any TEAEs: TEAEs,[5]; [7],26 (86.7) n (%)
same,Patients with any TEAEs: treatment-related AEs,[5]; [7],17 (56.7) n (%)
same,Intestinal obstruction: SAEs,"[5]; safety analysis set n = 30, this SAE resulted in patient death",1 (3.3)^c n (%)
same,Patients who discontinued treatment due to a TEAE,"[5]; treatment phase, n = 30",6.7%
same,Patients with SAEs considered treatment related,"[5]; treatment phase, n = 30",Four
same,Patients with TEAEs leading to lenvatinib dose modification,"[5]; treatment phase, n = 30",40%
same,Patients with at least 1 TEAE,"[5]; treatment phase, n = 30",86.7%
same,Patients with dose reduction,"[5]; treatment phase, n = 30",13.3%
same,Patients with lenvatinib treatment interruption,"[5]; treatment phase, n = 30",26.7%
same,"SAE abdominal pain, patients","[5]; treatment phase, n = 30",6.7%
same,"SAE hypertension, patients","[5]; treatment phase, n = 30",10%
same,"TEAE diarrhea, patients","[5]; treatment phase, n = 30",23.3%
same,"TEAE fatigue, patients","[5]; treatment phase, n = 30",26.7%
same,"TEAE hypertension, patients","[5]; treatment phase, n = 30",23.3%
same,"Treatment-related TEAE diarrhea, patients","[5]; treatment phase, n = 30",10.0%
same,"Treatment-related TEAE fatigue, patients","[5]; treatment phase, n = 30",16.7%
same,"Treatment-related TEAE hypertension, patients","[5]; treatment phase, n = 30",20.0%
same,Effect on midazolam metabolism in physiologically based pharmacokinetic model,CYP3A4 [6],negligible effects
